Experimental data published in EP4786485A1, “STRAIGHT CHAIN PEPTIDE COMPOUND AND USE THEREOF” (Shenzhen Zhongge Biological Technology Co., Ltd., priority 2023, dated 2026).
Where a SMILES comes first, the peptide text is derived from it. [ ]: non-standard residue; d: D form. The star is where a group is joined. Biotin = O=C1N[C@H]2[C@H](CS[C@H]2CCCCC(=O)*)N1; Phe(3,4-Cl2) = N[C@@H](Cc1ccc(Cl)c(Cl)c1)C(=O)O; Lys(Me3) = C[N+](C)(C)CCCC[C@H](N)C(=O)O; Phe(4-Me) = Cc1ccc(C[C@H](N)C(=O)O)cc1; Palmitoyl = CCCCCCCCCCCCCCCC(=O)*; Hyp = O=C(O)[C@@H]1C[C@@H](O)CN1

What was measured:
Type in all cases: cell-based, Human
Elastin (ELN) = test: ELISA: effect of increasing the content of Elastin in fibroblasts; design: Effect of increasing the content of Elastin in the fibroblasts: unit not given here; conditions: 1 µM; for Effect of increasing the content of Elastin in the fibroblasts: 24 h incubation, ELISA, blank control (BC) 756.52; for increase in the content of Elastin: in words, compared to the BC, 24 h, fibroblasts
Protocol: (§1) B. Effects of increasing the contents of Collagen I (type I collagen), hyaluronic acid (HA), and Elastin (ELN) in fibroblasts
(§2) Test materials: Human-derived fibroblasts (Guangdong BioCell Biotechnology Co., Ltd., Lot No. Fb20081902), DMEM culture medium (Gibco, 23042301, expiration date 230522), PBS (Solarbio, P1010), TGF-β1 (Peprotech, 230504), Collagen I ELISA Kit (Cusabio, B21025824), Elastin ELISA Kit (Abcam, GR3446070-2), HA ELISA Kit (RD, P325066), CO2 incubator (Thermo, 150I), super-clean bench (AIRTECH, SW-CJ-1F), and microplate reader (BioTek, Epoch).
(§3) Test methods: • 1) Inoculation: After cell resuscitation, the cells were inoculated into 6-well plates when the plating rate reached around 60%, and were incubated overnight in an incubator (37°C, 5% CO2). • 2) Formulation of solutions: The linear peptide compounds in the sample groups, and PC2 (Biotinoyl-GHK, [drawing 69] ) and PC3 ( [drawing 70] ) in the positive control group were all at the concentration of 1 µM, and the test substance working solutions were formulated. • 3) Administration: When the cell plating rate in the 6-well plates reached 40% to 60%, administration was performed at 2 mL per well. Three duplicate wells were set for each group. Incubation was performed in an incubator (37°C, 5% CO2) for 24 h. • 4) ELISA assay: The ELISA assays were performed according to the instructions of the respective ELISA kits, with the detection indicators being effect of increasing the content of Collagen I in the fibroblasts, effect of increasing the content of HA in the fibroblasts, and effect of increasing the content of Elastin in the fibroblasts, respectively.

[1] = test system: Collagen I (type I collagen); test: ELISA: effect of increasing the content of Collagen I in fibroblasts; design: Effect of increasing the content of Collagen I in the fibroblasts: unit not given here; conditions: 1 µM, 24 h; for Effect of increasing the content of Collagen I in the fibroblasts: human-derived fibroblasts, ELISA, blank control BC = 35.6; for increase in the content of type I collagen (Collagen I): in words, compared to the BC, fibroblasts
Protocol: as §1, §2, §3

hyaluronic acid (HA) = test: ELISA: effect of increasing the content of HA in fibroblasts; design: Effect of increasing the content of HA in the fibroblasts: unit not given here; conditions: 1 µM, 24 h; for Effect of increasing the content of HA in the fibroblasts: human-derived fibroblasts, ELISA, blank control BC = 1402.44; for increase in the content of hyaluronic acid (HA): in words, compared to the BC, fibroblasts
Protocol: as §1, §2, §3

| SMILES | Effect of increasing the content of Elastin in the fibroblasts (Elastin (ELN)) | increase in the content of Elastin (Elastin (ELN)) | Effect of increasing the content of Collagen I in the fibroblasts [1] | increase in the content of type I collagen (Collagen I) [1] | Effect of increasing the content of HA in the fibroblasts (hyaluronic acid (HA)) | increase in the content of hyaluronic acid (HA) (hyaluronic acid (HA)) |
| --- | --- | --- | --- | --- | --- | --- |
| CNC(=O)[C@H](Cc1ccc(Cl)c(Cl)c1)NC(=O)[C@H](C)NC(=O)[C@H](CCCCN)NC(=O)[C@H](Cc1c[nH]cn1)NC(=O)CNC(=O)[C@H](CCCC[N+](C)(C)C)NC(C)=O [compound 338] (Ac-[Lys(Me3)]GHKA[Phe(3,4-Cl2)]-NHMe) | 1060.72 | significant increase | 89.07 | significant increase | 1913.07 | significant increase |
| CNC(=O)[C@H](Cc1ccc(C)cc1)NC(=O)CNC(=O)[C@H](CCCCN)NC(=O)[C@H](Cc1c[nH]cn1)NC(=O)CNC(=O)[C@H](CCCC[N+](C)(C)C)NC(C)=O [compound 349] (Ac-[Lys(Me3)]GHKG[Phe(4-Me)]-NHMe) | 836 | significant increase | 90.16 | significant increase | 1794.21 | significant increase |
| CNC(=O)[C@H](CCCC[N+](C)(C)C)NC(=O)CNC(=O)[C@H](Cc1c[nH]cn1)NC(=O)[C@H](CCCCN)NC(=O)[C@H](Cc1ccc(C)cc1)NC(C)=O [compound 358] (Ac-[Phe(4-Me)]KHG[Lys(Me3)]-NHMe) | 1133.42 | significant increase | 81.27 | significant increase | 1913.78 | significant increase |
| CNC(=O)[C@H](Cc1ccc(C)cc1)NC(=O)[C@H](CCCCNC(=O)[C@@H]1C[C@@H](O)CN1)NC(=O)[C@H](Cc1c[nH]cn1)NC(=O)CNC(=O)[C@H](CCCC[N+](C)(C)C)NC(C)=O [compound 373] (Ac-[Lys(Me3)]GHK(Hyp)[Phe(4-Me)]-NHMe) | 843.14 | significant increase | 57.84 | significant increase | 2472.81 | significant increase |
| CCCCCCCCCCCCCCCC(=O)N[C@@H](CCCC[N+](C)(C)C)C(=O)NCC(=O)N[C@@H](Cc1c[nH]cn1)C(=O)N[C@@H](CCCCNC(=O)[C@@H]1CCCN1)C(=O)N[C@@H](Cc1ccc(C)cc1)C(=O)O [compound 397] (Palmitoyl-[Lys(Me3)]GHK(Pro)[Phe(4-Me)]-OH) | 1115.1 | significant increase | 54.45 | significant increase | 1832.87 | significant increase |
| CCCCCCCCCCCCCCCC(=O)N[C@@H](CCCC[N+](C)(C)C)C(=O)NCC(=O)N[C@@H](Cc1c[nH]cn1)C(=O)N[C@@H](CCCCNC(=O)[C@@H]1C[C@@H](O)CN1)C(=O)N[C@@H](Cc1ccc(C)cc1)C(=O)O [compound 403] (Palmitoyl-[Lys(Me3)]GHK(Hyp)[Phe(4-Me)]-OH) | 928.61 | significant increase | 97.51 | significant increase | 2688.75 | significant increase |
| Cc1ccc(C[C@H](NC(=O)[C@H](CCCCNC(=O)[C@@H]2C[C@@H](O)CN2)NC(=O)[C@H](Cc2c[nH]cn2)NC(=O)CNC(=O)[C@H](CCCC[N+](C)(C)C)NC(=O)CCCC[C@@H]2SC[C@@H]3NC(=O)N[C@@H]32)C(N)=O)cc1 [compound 406] (Biotin-[Lys(Me3)]GHK(Hyp)[Phe(4-Me)]-NH2) | 947.33 | significant increase | 88.9 | significant increase | 1473.32 | significant increase |
| CCCCCCCCCCCCCCCC(=O)N[C@@H](Cc1ccc(C)cc1)C(=O)N[C@@H](C)C(=O)N[C@@H](CCCCN)C(=O)N[C@@H](Cc1c[nH]cn1)C(=O)NCC(=O)N[C@@H](CCCC[N+](C)(C)C)C(=O)O [compound 415] (Palmitoyl-[Phe(4-Me)]AKHG[Lys(Me3)]-OH) | 1010.76 | significant increase | 85.52 | significant increase | 1570.27 | significant increase |
| CCCCCCCCCCCCCCCC(=O)N[C@@H](Cc1ccc(OCC)cc1)C(=O)N[C@@H](C)C(=O)N[C@@H](CCCCN)C(=O)N[C@@H](Cc1c[nH]cn1)C(=O)NCC(=O)N[C@@H](CCCC[N+](C)(C)C)C(=O)O [compound 417] (Palmitoyl-Y(Et)AKHG[Lys(Me3)]-OH) | 861.32 | significant increase | 92.88 | significant increase | 1938.51 | significant increase |
